Experimental data from patent US20130337564A1, “Treatment of Pluripotent Cells” (Janssen Biotech, Inc., priority 2012, published 2013).

Tests used:
[1] = tested on: human embryonic stem cell line H1; assay: Dose titration secondary assay: cell number, H1; type: cell-based; settings: positive control (Wnt3a/Activin A) normalized to 1.000; for activity at 0.156 µM / activity at 0.313 µM / activity at 0.625 µM / activity at 1.25 µM / activity at 2.5 µM / activity at 5 µM / activity at 10 µM: Homo sapiens, Embryonic stem cell
Experimental: (§1) It was important to confirm the activity of hits identified from primary screening and further analyze the range of activity by dose titration. New samples of a selective subset of primary screening hits were obtained as dry powders, solubilized to make fresh stock reagents, and diluted into secondary confirmation assays to evaluate effects on human embryonic stem cells.
(§2) Culture of two human embryonic stem cells (H1 and H9) was conducted as described in Example 1. Colonies of cells were maintained in an undifferentiated, pluripotent state on Matrigel™ ([…]) coated polystyrene plastic, using a 1:30 dilution of Matrigel™ in DMEM:F12 to coat the surface. Cells were split by enzymatic passage every four days on average. Passage was performed by exposing cell monolayers to a solution of collagenase (1 mg/ml; Sigma-Aldrich) for 10 to 60 minutes at 37° C. followed by gentle scraping with a pipette tip to recover cell clusters. Clusters were allowed to sediment by gravity, then washed to remove residual collagenase. Cell clusters were split at a 1:3 ratio for maintenance culture or a 1:1 ratio for subsequent assay. The human embryonic stem cell lines were maintained at less than passage 50 and routinely evaluated for normal karyotypic phenotype and absence of mycoplasma contamination.
(§3) Cell clusters of the H1 or H9 human embryonic stem cell lines used in the assay were evenly resuspended in culture medium and plated onto Matrigel™-coated 96-well Packard VIEWPLATES (PerkinElmer) in volumes of 100 μl/well. MEF conditioned medium supplemented with 8 ng/ml bFGF was used for initial plating and expansion. Daily feeding was conducted by aspirating spent culture medium from each well and replacing with an equal volume of fresh medium. Cultures were allowed to expand one to three days after plating prior to initiating assay. Plates were maintained at 37° C., 5% CO2 in a humidified box for the duration of assay.
(§4) A subset of hits resulting from primary screening was used for follow-up study and subsequent secondary assays. Twenty compounds available as dry powders were solubilized as 10 mM stocks in DMSO and stored dessicated at […] until use Immediately prior to assay, compound stocks were diluted 1:1000 to make 10 μM test compound in DMEM:F12 base medium (Invitrogen) supplemented with 0.5% FCS (HyClone) and 100 ng/ml Activin A (R&D Biosystems). This was further diluted two-fold in series to make a seven point dilution curve for each compound, also in DMEM:F12 base medium with 0.5% FCS and 100 ng/ml Activin A.
(§5) Assay was initiated by aspirating culture medium from cell monolayers in each well followed by three washes in PBS to remove residual growth factors and serum. Test volumes of 100 μl per well were added back containing medium with 0.5% FCS and different concentrations of inhibitor compounds with 100 ng/ml Activin A, without Wnt3a. Positive control wells contained the same base medium with 0.5% FCS and with 20 ng/ml Wnt3a (R&D Biosystems) in the absence of test compound. Negative control wells contained the same base medium with 0.5% FCS, in the absence of Activin A, Wnt3a, or test compound. Assay wells were aspirated and fed again with identical concentrations of test compound or control solutions on day 2 of assay. On days 3 and 4, all assay wells were aspirated and fed with DMEM:F12 supplemented with 2% FCS and 100 ng/ml Activin A in the absence of both test compound or Wnt3a. Parallel negative control wells were maintained on days 3 and 4 in DMEM:F12 base medium with 2% FCS.
(§6) At the end of culture, cells in 96-well plates were washed twice with PBS then fixed with 4% paraformaldehyde at room temperature for 20 minutes, washed three times more with PBS, and then permeabilized with 0.5% Triton X-100 for 20 minutes at room temperature. After fixing and permeabilizing, cells were washed again three times with PBS and then blocked with 4% chicken serum (Invitrogen) in PBS for 30 minutes at room temperature. […]

[2] = tested on: Sox17 expression in human embryonic stem cell line H1; assay: Dose titration secondary assay: Sox17 intensity, H1; type: cell-based
Experimental: as §1, §2, §3, §4, §5, §6

[3] = MTS viability (toxicity) assay of cells expressing pluripotency markers; type: cell-based, human; settings: human, MTS on day 4, relative to Activin A + Wnt3a positive control, read-out: % Control (percentage viability of control); for viability at 4 days, 2.5 μM: cmpd conc 2.5 μM; for viability at 4 days, 5 μM: cmpd conc 5 μM; for viability at 4 days, 10 μM: cmpd conc 10 μM
Procedure, shortened: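 A GSK-3B inhibitor library was screened for toxicity to pluripotency-marker-expressing cells. Compound was given in DMEM:F12 with 0.5% FCS and 100 ng/ml Activin A for two days, then replaced by medium with 2% FCS and Activin A. On day 4, MTS absorbance at 490 nm gave viability as percent of Activin A plus Wnt3a control wells.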

Compound	Cell number ([1]; Conc 0.156 μM)	Cell number ([1]; Conc 0.313 μM)	Cell number ([1]; Conc 0.625 μM)	Cell number ([1]; Conc 1.25 μM)	Cell number ([1]; Conc 2.5 μM)	Cell number ([1]; Conc 5 μM)	Cell number ([1]; Conc 10 μM)	Sox17 Intensity ([2]; 0.156 μM compound)	Sox17 Intensity ([2]; 0.313 μM compound)	Sox17 Intensity ([2]; 0.625 μM compound)	Sox17 Intensity ([2]; 1.25 μM compound)	Sox17 Intensity ([2]; 2.5 μM compound)	Sox17 Intensity ([2]; 5 μM compound)	Sox17 Intensity ([2]; 10 μM compound)	viability at 4 days, 2.5 μM [3] [%]	viability at 4 days, 5 μM [3] [%]	viability at 4 days, 10 μM [3] [%]	activity at 0.156 µM ([1]; Conc 0.156 μM) [%]	activity at 0.313 µM ([1]; Conc 0.313 μM) [%]	activity at 0.625 µM ([1]; Conc 0.625 μM) [%]	also measured
CCN1CCOCCOCCn2cc(c3ccccc32)C2=C(C(=O)NC2=O)c2cn(c3ccccc23)CC1 [Compound 103, 14-Ethyl-6,7,9,10,13,14,15,16-octahydro-12H,23H-5,26:17,22-di(metheno)dibenzo[k,q]pyrrolo[3,4-n][1,4,7,10,19]dioxatriacyclohenicosine-23,25(24H)-dione]	1.027	1.028	0.921	0.897	0.566	0.034	0.001	0.986	0.934	0.824	0.792	0.200	0.017	0.001	–	–	–	–	–	–	–
CN1CCN(C)CCn2cc(c3ccccc32)C2=C(C(=O)NC2=O)c2cn(c3ccccc23)CC1 [Compound 111, 8,11-Dimethyl-6,7,8,9,10,11,12,13-octahydro-20H-5,23:14,19-di(metheno)dibenzo[k,q]pyrrolo[3,4-n][1,4,7,10]tetraazacyclooctadecine-20,22(21H)-dione]	0.659	0.785	0.801	0.914	1.031	1.128	0.412	0.628	0.667	0.755	0.819	0.887	0.846	0.330	–	–	–	–	–	–	–
CN1CCOCCOCCN(C)CCn2cc(c3ccccc32)C2=C(C(=O)NC2=O)c2cn(c3ccccc23)CC1 [Compound 112, 12,21-Dimethyl-11,12,13,14,16,17,20,21,22,23-decahydro-1H,10H,19H-9,4:24,29-di(metheno)dibenzo[k,q]pyrrolo[3,4-n][1,4,7,10,19,22]dioxatetraazacyclotetracosine-1,3(2H)-dione]	0.912	0.959	1.111	1.200	1.005	0.908	0.996	0.922	1.006	1.136	1.159	0.928	0.728	0.701	–	–	–	–	–	–	–
O=C1NC(=O)C2=C1c1cn(c3ccccc13)CCOCCOCCN(Cc1cccs1)CCn1cc2c2ccccc21 [Compound 133, 14-(2-Thienylmethyl)-6,7,9,10,13,14,15,16-octahydro-12H,23H-5,26:17,22-di(metheno)dibenzo[k,q]pyrrolo[3,4-n][1,4,7,10,19]dioxatriazacyclohenicosine-23,25(24H)-dione]	0.890	0.888	1.106	1.124	0.592	0.262	0.096	0.888	0.937	1.061	0.993	0.497	0.071	0.034	–	–	–	–	–	–	–
Cc1c[nH]c(-c2cnc(NCCNc3ccc(C#N)cn3)nc2-c2ccc(Cl)cc2Cl)n1 [Compound 221, 6-[(2-{[4-(2,4-Dichlorophenyl)-5-(4-methyl-1H-imidazol-2-yl)pyrimidin-2-yl]amino}ethyl)amino]pyridine-3-carbonitrile]	–	–	–	–	–	–	–	–	–	–	–	–	–	–	112	82.3	67.5	108	113	111	activity at 1.25 µM ([1]; Conc 1.25 μM): 112%; activity at 2.5 µM ([1]; Conc 2.5 μM): 89.6%; activity at 5 µM ([1]; Conc 5 μM): 88.9%; activity at 10 µM ([1]; Conc 10 μM): 19.3%
CC(C)(O)CCn1nc(C2=C(c3cn(-c4cccnc4)c4ccccc34)C(=O)NC2=O)c2ccccc21 [Compound 223, 3-[1-(3-Hydroxy-3-methylbutyl)-1H-indazol-3-yl]-4-(1-pyridin-3-yl-1H-indol-3-yl)-1H-pyrrole-2,5-dione]	–	–	–	–	–	–	–	–	–	–	–	–	–	–	99.6	93.9	83.7	77.6	102	103	activity at 1.25 µM ([1]; Conc 1.25 μM): 116%; activity at 2.5 µM ([1]; Conc 2.5 μM): 132%; activity at 5 µM ([1]; Conc 5 μM): 135%; activity at 10 µM ([1]; Conc 10 μM): 128%
O=C1NC(=O)C(c2nn(CCO)c3ccccc23)=C1c1cn(-c2cncnc2)c2ccccc12 [Compound 226, 3-[1-(2-Hydroxyethyl)-1H-indazol-3-yl]-4-(1-pyrimidin-5-yl-1H-indol-3-yl)-1H-pyrrole-2,5-dione]	–	–	–	–	–	–	–	–	–	–	–	–	–	–	86.3	86.7	78.9	77.4	78.5	80.5	activity at 1.25 µM ([1]; Conc 1.25 μM): 73.9%; activity at 2.5 µM ([1]; Conc 2.5 μM): 64%; activity at 5 µM ([1]; Conc 5 μM): 45.8%; activity at 10 µM ([1]; Conc 10 μM): 29%
O=C1NC(=O)C2=C1Nc1cccc(c1)OCCC/C=C\CCCOc1cccc2c1 [Compound 233, (11Z)-8,9,10,13,14,15-Hexahydro-2,6:17,21-di(metheno)pyrrolo[3,4-h][1,15,7]dioxazacyclotricosine-22,24(1H,23H)-dione]	–	–	–	–	–	–	–	–	–	–	–	–	–	–	41.6	0	1.5	83.2	79.1	73.6	activity at 1.25 µM ([1]; Conc 1.25 μM): 63.6%; activity at 2.5 µM ([1]; Conc 2.5 μM): 43.8%; activity at 5 µM ([1]; Conc 5 μM): 8.9%; activity at 10 µM ([1]; Conc 10 μM): 0%
